According to ChEMBL document CHEMBL3351245, “Chlorinated polyketide obtained from a Daldinia sp. treated with the epigenetic modifier suberoylanilide hydroxamic acid” (J Nat Prod, 2014):
Activity calls are given as the source filed them. The calls are words filed in the database; no cut-off is given here.

How the values were obtained:
[1] = Antioxidant activity assessed as DPPH radical scavenging activity incubated for 30 mins; type: physicochemical
Staphylococcus aureus = assay: Antimicrobial activity against methicillin-resistant Staphylococcus aureus; type: functional, organism-based
Klebsiella pneumoniae = assay: Antimicrobial activity against Klebsiella pneumoniae; type: functional, organism-based
MIA PaCa-2 = assay: Cytotoxicity against human MIAPaCa2 cells by MTT assay; type: functional, cell-based

| Structure (SMILES) | IC50 [1] | Activity (Staphylococcus aureus) | Activity (Klebsiella pneumoniae) | Activity (MIA PaCa-2) |
| --- | --- | --- | --- | --- |
| O=C1O[C@H]([C@@H](O)CO)C(O)=C1O [ASCORBIC ACID] | 3.2 µM | – | – | – |
| O=C1c2c3c(cc(O)c2[C@H](O)[C@H](O)[C@@H]1Cl)-c1ccc(O)c2c(O)ccc-3c12 | 3.6 µM | inactive | inactive | inactive |
| O=C1c2c3c(cc(O)c2[C@H](O)[C@@H]2O[C@H]12)-c1ccc(O)c2c(O)ccc-3c12 | 3.1 µM | inactive | inactive | inactive |
